The values that follow come from patent US12410160B2 (Gilead Sciences, Inc., priority 2021, dated 2025).

pIC50: −log10 of the molar value. A value given as a limit tells only on which side of the number the result lay.

One assay has as its target human KHK-A (Homo sapiens (Human), UniProt P50053). Description: KHK Biochemical Assay (IC50), ADP-Glo, KHK-A. As to conditions: average of at least two separate assays. The method, boiled down: (§1)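 Luminescent ADP-Glo read-out of ADP made by His-tagged KHK (BL21 (DE3) expression, Ni-NTA). Enzyme and compound sat together 30 min before ATP/fructose addition, then reacted 4 h at RT in Hepes pH 7.4 buffer with KCl, MgCl2, Triton-X. Quench 1 h, detection 1 h.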
Background: In ADP-Glo the light output rises with the ADP produced.

Another assay deals with human KHK-C (Homo sapiens (Human), UniProt P50053). Briefly: KHK Biochemical Assay (IC50), ADP-Glo, KHK-C. As to conditions: average of at least two separate assays. The method, boiled down:
as §1

human KHK-C, sequence (P50053 whole entry): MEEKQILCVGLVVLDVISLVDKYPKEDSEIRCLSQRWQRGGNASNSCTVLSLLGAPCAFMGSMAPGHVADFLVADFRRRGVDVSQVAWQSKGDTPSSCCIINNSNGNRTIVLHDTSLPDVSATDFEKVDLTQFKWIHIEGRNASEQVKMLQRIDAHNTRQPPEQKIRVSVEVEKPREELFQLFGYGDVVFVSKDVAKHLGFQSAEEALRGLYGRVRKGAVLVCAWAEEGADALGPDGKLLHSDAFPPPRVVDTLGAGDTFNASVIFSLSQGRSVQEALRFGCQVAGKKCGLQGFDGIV
human KHK-A, sequence (P50053 other isoform, or with tags, fused parts or gaps): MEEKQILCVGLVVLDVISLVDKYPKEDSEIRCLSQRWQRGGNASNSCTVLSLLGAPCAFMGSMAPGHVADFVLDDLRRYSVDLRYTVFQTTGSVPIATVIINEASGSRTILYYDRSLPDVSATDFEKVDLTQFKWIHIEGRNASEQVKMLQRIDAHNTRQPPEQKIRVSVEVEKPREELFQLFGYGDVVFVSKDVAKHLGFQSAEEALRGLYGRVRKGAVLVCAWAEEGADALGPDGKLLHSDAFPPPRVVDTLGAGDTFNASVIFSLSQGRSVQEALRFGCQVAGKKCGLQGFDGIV

Turning to `C[C@H]1[C@H](O)CN1c1nc(-c2ccc3c(c2)OC[C@@H]3NC2COC2)c2c(n1)C(F)(F)CC2` [Example 585, (2S,3R)-1-[7,7-difluoro-4-[(3R)-3-(oxetan-3-ylamino)-2,3-dihydrobenzofuran-6-yl]-5,6-dihydrocyclopenta[d]pyrimidin-2-yl]-2-methyl-azetidin-3-ol], the pIC50 was 7.38 against human KHK-A and 7.67 on human KHK-C.

As to `C[C@@H]1N(c2nc(-c3ccc4c(c3)COC[C@@H]4NS(C)(=O)=O)c3c(n2)C(F)(F)CC3)CC1(F)F` [Example 584, N—((R)-7-(2-((S)-3,3-difluoro-2-methylazetidin-1-yl)-7,7-difluoro-6,7-dihydro-5H-cyclopenta[d]pyrimidin-4-yl)isochroman-4-yl)methanesulfonamide], the pIC50 against human KHK-A was 7.70; against human KHK-C, 8.59.

Regarding `C[C@H]1[C@H](O)CN1c1nc2c(c(-c3ccc(S(N)(=O)=O)cc3)n1)CCC2` [Example 199, 4-[2-[(2S,3R)-3-hydroxy-2-methyl-azetidin-1-yl]-6,7-dihydro-5H-cyclopenta[d]pyrimidin-4-yl]benzenesulfonamide], the pIC50 against human KHK-A (ADP-Glo) was 6.55; against human KHK-C (ADP-Glo), 6.83.

For the molecule `Cc1nnc(-c2ccc(-c3nc(N4CC[C@@H]4C)nc4c3CCC4)cc2)o1` [Example 100, (S)-2-methyl-5-(4-(2-(2-methylazetidin-1-yl)-6,7-dihydro-5H-cyclopenta[d]pyrimidin-4-yl)phenyl)-1,3,4-oxadiazole], the pIC50 against human KHK-A (ADP-Glo) and against human KHK-C (ADP-Glo) was 6.79 throughout.

Turning to `C[C@H]1CCN1c1nc2c(c(-c3cccc(C(=O)NCCNC(=O)OC(C)(C)C)c3)n1)CCC2` [Example 51, tert-butyl (S)-(2-(3-(2-(2-methylazetidin-1-yl)-6,7-dihydro-5H-cyclopenta[d]pyrimidin-4-yl)benzamido)ethyl)carbamate], the pIC50 was 6.84 against human KHK-A (ADP-Glo) and 6.51 against human KHK-C (ADP-Glo).

With `Cc1cc(-c2nc(N3CC[C@@H]3C)nc3c2CCC3)cc2c1C(NS(C)(=O)=O)CO2` (stereo partly drawn) [Example 889, N-(4-methyl-6-(2-((S)-2-methylazetidin-1-yl)-6,7-dihydro-5H-cyclopenta[d]pyrimidin-4-yl)-2,3-dihydrobenzofuran-3-yl)methanesulfonamide], the pIC50 at human KHK-A (ADP-Glo) is 7.01; against human KHK-C (ADP-Glo) it was 7.77.

As for `C[C@H]1CCN1c1nc2c(c(-c3ccc(-c4noc(=O)[nH]4)cc3)n1)CCC2` [Example 871, (S)-3-(4-(2-(2-methylazetidin-1-yl)-6,7-dihydro-5H-cyclopenta[d]pyrimidin-4-yl)phenyl)-1,2,4-oxadiazol-5(4H)-one], the pIC50 against human KHK-A (ADP-Glo) is 7.30; against human KHK-C (ADP-Glo), 7.63.

With `C[C@H]1CCN1c1nc(-c2ccccc2)c2cccnc2n1` [Example 212, 2-[(2S)-2-methylazetidin-1-yl]-4-phenyl-pyrido[2,3-d]pyrimidine], the pIC50 was 4.98 at human KHK-A (ADP-Glo) and 5.25 on human KHK-C (ADP-Glo).

For `C[C@H]1CCN1c1nc2c(c(-c3ccccc3)n1)CC(C1CC1)C2` (stereo partly drawn) [Example 30, 6-cyclopropyl-2-((S)-2-methylazetidin-1-yl)-4-phenyl-6,7-dihydro-5H-cyclopenta[d]pyrimidine], the pIC50 against human KHK-A (ADP-Glo) and on human KHK-C (ADP-Glo) was under 4.30 throughout.

Turning to `NC1(c2ccc(-c3nc(N4CCC4C4CCC4)nc4c3CCC4(F)F)cc2)COC1` (centres unmarked) [Example 572, 3-(4-(2-(2-cyclobutylazetidin-1-yl)-7,7-difluoro-6,7-dihydro-5H-cyclopenta[d]pyrimidin-4-yl)phenyl)oxetan-3-amine], the pIC50 at human KHK-A is under 7.00; against human KHK-C it was 7.25.

`C[C@H]1CCN1c1nc2c(c(-c3cccc(S(C)(=N)=O)n3)n1)CCC2` (stereo partly drawn) [Example 860, imino(methyl)(6-(2-((S)-2-methylazetidin-1-yl)-6,7-dihydro-5H-cyclopenta[d]pyrimidin-4-yl)pyridin-2-yl)-λ^6-sulfanone]: the pIC50 against human KHK-A (ADP-Glo) was 6.72; against human KHK-C (ADP-Glo), 6.65.

With `C[C@H]1CCN1c1nc2c(c(-c3ccc(C(N)=O)c(C(=O)c4ccccc4)c3)n1)CCC2` [Example 843, (S)-2-benzoyl-4-(2-(2-methylazetidin-1-yl)-6,7-dihydro-5H-cyclopenta[d]pyrimidin-4-yl)benzamide], the pIC50 is 6.89 at human KHK-A (ADP-Glo) and 7.09 against human KHK-C (ADP-Glo).

Regarding `C[C@H]1CCN1c1nc2c(c(-c3cccc(C(=O)NCCO)c3)n1)CCC2` [Example 61, (S)—N-(2-hydroxyethyl)-3-(2-(2-methylazetidin-1-yl)-6,7-dihydro-5H-cyclopenta[d]pyrimidin-4-yl)benzamide], the pIC50 against human KHK-A (ADP-Glo) was 7.25; on human KHK-C (ADP-Glo), 7.04.

Take `C[C@H]1CCN1c1nc2c(c(-c3cccc(S(=N)(N)=O)c3)n1)CCC2` (stereo partly drawn) [Example 873, 3-(2-((S)-2-methylazetidin-1-yl)-6,7-dihydro-5H-cyclopenta[d]pyrimidin-4-yl)benzenesulfonimidamide]: the pIC50 at human KHK-A (ADP-Glo) is 7.62; against human KHK-C (ADP-Glo) it was 7.63.

As for `COC(=O)Cc1cccc(-c2nc(N3CC[C@@H]3C)nc3c2CCC3)c1` [Example 3, methyl (S)-2-(3-(2-(2-methylazetidin-1-yl)-6,7-dihydro-5H-cyclopenta[d]pyrimidin-4-yl)phenyl)acetate], the pIC50 against human KHK-A (ADP-Glo) and against human KHK-C (ADP-Glo) was 6.92 each time.

For `C[C@H]1CCN1c1nc(-c2cn[nH]c2)c2c(cnn2C)n1` [Example 35, (S)-1-methyl-5-(2-methylazetidin-1-yl)-7-(1H-pyrazol-4-yl)-1H-pyrazolo[4,3-d]pyrimidine], the pIC50 was 6.72 against human KHK-A (ADP-Glo) and 6.66 at human KHK-C (ADP-Glo).

“2-(3-(7,7-difluoro-2-((2S,3R)-3-hydroxy-2-methylazetidin-1-yl)-6,7-dihydro-5H-cyclopenta[d]pyrimidin-4-yl)phenylsulfonimidoyl)acetonitrile [Example 628]”: the figures for the pIC50 against human KHK-A and on human KHK-C were 7.99 and 8.06, respectively.

For the molecule `COc1ccc(-c2nc(N3CC[C@@H]3C)nc3c2CCC3)cc1S(=N)(=O)c1ccc(C#N)cc1Cl` (stereo partly drawn) [Example 849, 3-chloro-4-(2-methoxy-5-(2-((S)-2-methylazetidin-1-yl)-6,7-dihydro-5H-cyclopenta[d]pyrimidin-4-yl)phenylsulfonimidoyl)benzonitrile], the negative logarithm of the IC50 (pIC50) against human KHK-A (ADP-Glo) is 7.79; at human KHK-C (ADP-Glo), 7.60.

As to `C[C@H]1CCN1c1nc2c(c(-c3cccc(C(=O)Nc4ccccc4)c3)n1)CCC2` [Example 297, (S)-3-(2-(2-methylazetidin-1-yl)-6,7-dihydro-5H-cyclopenta[d]pyrimidin-4-yl)-N-phenylbenzamide], the pIC50 at human KHK-A (ADP-Glo) is 6.07; against human KHK-C (ADP-Glo), 5.55.

In the case of `C[C@H]1CCN1c1nc2c(c(-c3ccc(C#N)s3)n1)CCC2` [Example 49, (S)-5-(2-(2-methylazetidin-1-yl)-6,7-dihydro-5H-cyclopenta[d]pyrimidin-4-yl)thiophene-2-carbonitrile], the values for the pIC50 against human KHK-A (ADP-Glo) and against human KHK-C (ADP-Glo) were 6.90 and 6.65, respectively.

Turning to `Cc1cc(-c2nc(N3CC[C@@H]3C)nc3c2CCC3)sn1` [Example 327, 3-methyl-5-[2-[(2S)-2-methylazetidin-1-yl]-6,7-dihydro-5H-cyclopenta[d]pyrimidin-4-yl]isothiazole], the pIC50 is 7.01 against human KHK-A (ADP-Glo) and 7.42 against human KHK-C (ADP-Glo).

As to `C[C@H]1CCN1c1nc2c(c(-c3ccc(CN4CCOCC4)cc3)n1)CCC2` [Example 367, 4-[[4-[2-[(2S)-2-methylazetidin-1-yl]-6,7-dihydro-5H-cyclopenta[d]pyrimidin-4-yl]phenyl]methyl]morpholine], the pIC50 against human KHK-A (ADP-Glo) is 6.65; at human KHK-C (ADP-Glo), 6.76.

As for `C[C@H]1CCN1c1nc2c(c(-c3ccc4c(c3)NC(=O)CNC4)n1)CCC2` [Example 855, (S)-8-(2-(2-methylazetidin-1-yl)-6,7-dihydro-5H-cyclopenta[d]pyrimidin-4-yl)-1,3,4,5-tetrahydro-2H-benzo[e][1,4]diazepin-2-one], the pIC50 against human KHK-A (ADP-Glo) is 7.07; against human KHK-C (ADP-Glo) it was 7.09.

Take `C[C@H]1CCN1c1nc2c(c(-c3cccc(S(=N)(=O)c4ccccc4)c3)n1)CCC2` (stereo partly drawn) [Example 878, imino(3-(2-((S)-2-methylazetidin-1-yl)-6,7-dihydro-5H-cyclopenta[d]pyrimidin-4-yl)phenyl)(phenyl)-λ^6-sulfanone]: the pIC50 against human KHK-A (ADP-Glo) is 7.42; on human KHK-C (ADP-Glo), 7.06.

For the molecule `C[C@H]1CCN1c1nc2c(c(-c3cc(N)cc(C(N)=O)c3)n1)CCC2` [Example 299, (S)-3-amino-5-(2-(2-methylazetidin-1-yl)-6,7-dihydro-5H-cyclopenta[d]pyrimidin-4-yl)benzamide], the pIC50 at human KHK-A (ADP-Glo) is 7.33; against human KHK-C (ADP-Glo) it was 7.34.

Take `C[C@@H]1Oc2cc(-c3nc(N4CC[C@@H]4C)nc4c3CCC4)ccc2[C@H]1NS(C)(=O)=O` [Example 886, N-((2s,3r)-2-methyl-6-(2-((S)-2-methylazetidin-1-yl)-6,7-dihydro-5H-cyclopenta[d]pyrimidin-4-yl)-2,3-dihydrobenzofuran-3-yl)methanesulfonamide]: the pIC50 on human KHK-A (ADP-Glo) is 7.57; on human KHK-C (ADP-Glo) it was 7.88.

For `C[C@H]1CCN1c1nc2c(c(-c3ccc4c(c3)C(O)CC4NS(C)(=O)=O)n1)CCC2` (stereo partly drawn) [Example 888, N-(3-hydroxy-5-(2-((S)-2-methylazetidin-1-yl)-6,7-dihydro-5H-cyclopenta[d]pyrimidin-4-yl)-2,3-dihydro-1H-inden-1-yl)methanesulfonamide], the pIC50 on human KHK-A (ADP-Glo) is 7.29; against human KHK-C (ADP-Glo) it was 8.39.

For the molecule `C[C@H]1CCN1c1nc2c(c(-c3ccc(C(N)=O)c(SCc4ccccc4)c3)n1)CCC2` [Example 842, (S)-2-(benzylthio)-4-(2-(2-methylazetidin-1-yl)-6,7-dihydro-5H-cyclopenta[d]pyrimidin-4-yl)benzamide], the figures for the pIC50 on human KHK-A (ADP-Glo) and against human KHK-C (ADP-Glo) were 6.52 and 6.24, respectively.

One may read the pIC50 as the IC50 on a negative log10 scale, so that one unit is a factor of ten. Lower therefore signals a large IC50.
